Assay results published in PubChem BioAssay AID248 (DTP/NCI, 2004).
“And” between values parts separate entries of the source, which are not always exact repeats. Identical values can stand only once. Inconclusive results and toxic doses are left out. No stated cut-off is given here; in the data, active means T/C of 150% or more; inactive means T/C below 125%.

Tested on: L1210 leukemia ip in BDF1 mice, survival T/C
Assay: NCI In Vivo Anticancer Drug Screen. Data for tumor model L1210 Leukemia (intraperitoneal) in B6D2F1 (BDF1) mice
Conditions: endpoint: mean survival time, higher = longer survival
Method in brief: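 Value reflects the ratio of survival in compound-treated mice to survival in vehicle-treated controls, with both groups carrying the same transplanted tumor.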

[1] = dose: 100.0 mg/kg/injection, schedule: Q01DX001 (ip), vehicle: saline
[2] = dose: 200.0 mg/kg/injection, schedule: Q01DX001 (ip), vehicle: saline
[3] = dose: 100.0 mg/kg/injection, schedule: Q01DX009 (ip), vehicle: saline
[4] = dose: 100.0 mg/kg/injection, schedule: Q04DX003 (ip), vehicle: saline
[5] = dose: 200.0 mg/kg/injection, schedule: Q04DX003 (ip), vehicle: saline with Tween-80
[6] = dose: 400.0 mg/kg/injection, schedule: Q04DX003 (ip), vehicle: saline with Tween-80

Measured: T/C

CS(=O)(=O)Nc1ccccc1
inactive: dose: 75.0 mg/kg/injection, schedule: Q04DX003 (ip), vehicle: Klucel (hydroxypropylcellulose) (HPC) 98 % of control | dose: 100.0 mg/kg/injection, schedule: Q01DX001 (ip), vehicle: Klucel (hydroxypropylcellulose) (HPC) 96 % of control | dose: 150.0 mg/kg/injection, schedule: Q04DX003 (ip), vehicle: Klucel (hydroxypropylcellulose) (HPC) 93 % of control | dose: 200.0 mg/kg/injection, schedule: Q01DX001 (ip), vehicle: Klucel (hydroxypropylcellulose) (HPC) 101 % of control | dose: 300.0 mg/kg/injection, schedule: Q04DX003 (ip), vehicle: Klucel (hydroxypropylcellulose) (HPC) 93 % of control | dose: 400.0 mg/kg/injection, schedule: Q01DX001 (ip), vehicle: Klucel (hydroxypropylcellulose) (HPC) 96 % of control

O=C(O)CC(C(=O)O)C1CCCC1 (stereo unspecified)
inactive: dose: 75.0 mg/kg/injection, schedule: Q01DX001 (ip), vehicle: saline 102 % of control | dose: 150.0 mg/kg/injection, schedule: Q01DX001 (ip), vehicle: saline 94 % of control | dose: 300.0 mg/kg/injection, schedule: Q01DX001 (ip), vehicle: saline 92 % of control

C[N+](C)(CCNCc1ccccc1)Cc1ccccc1
inactive: [1] 102 % of control | [2] 100 % of control | dose: 400.0 mg/kg/injection, schedule: Q01DX001 (ip), vehicle: saline 100 % of control

CCN(CC)C(=O)NC1CCCN1C (stereo unspecified)
inactive: [3] 96 % of control | [4] 97 % of control | dose: 200.0 mg/kg/injection, schedule: Q01DX009 (ip), vehicle: saline 101 % of control | dose: 200.0 mg/kg/injection, schedule: Q04DX003 (ip), vehicle: saline 107 % of control | dose: 400.0 mg/kg/injection, schedule: Q01DX009 (ip), vehicle: saline 109 % of control | dose: 400.0 mg/kg/injection, schedule: Q04DX003 (ip), vehicle: saline 103 % of control

Cc1ccc(/C=C2\CC(C)(C)c3ccccc3C2=O)cc1
inactive: [5] 100 % of control | [6] 93 % of control

O=C(O)C1CC12c1ccccc1-c1ccccc12 (stereo unspecified)
inactive: [1] 92 % of control | [2] 95 % of control

COc1ccc(C(=O)C(C)(CN(C)C)c2ccccc2)cc1 (stereo unspecified)
inactive: dose: 25.0 mg/kg/injection, schedule: Q01DX009 (ip), vehicle: saline 93 % of control | dose: 25.0 mg/kg/injection, schedule: Q04DX003 (ip), vehicle: saline 92 % of control | dose: 50.0 mg/kg/injection, schedule: Q01DX009 (ip), vehicle: saline 100 % of control | dose: 50.0 mg/kg/injection, schedule: Q04DX003 (ip), vehicle: saline 94 % of control | [3] 102 % of control | [4] 93 % of control and 101 % of control

CC(=O)C(=O)C=C(C(F)(F)F)C(F)(F)F
inactive: dose: 100.0 mg/kg/injection, schedule: Q04DX003 (ip), vehicle: saline with Tween-80 113 % of control | [5] 106 % of control | [6] 101 % of control

[Cl][Co][Cl].[NH-]CCN1CC1
inactive: [4] 90 % of control

Cc1nc(C#N)c(C#N)nc1C
inactive: dose: 6.25 mg/kg/injection, schedule: Q01DX009 (ip), vehicle: Klucel (hydroxypropylcellulose) (HPC) 96 % of control | dose: 12.5 mg/kg/injection, schedule: Q01DX009 (ip), vehicle: Klucel (hydroxypropylcellulose) (HPC) 98 % of control | dose: 12.5 mg/kg/injection, schedule: Q04DX003 (ip), vehicle: Klucel (hydroxypropylcellulose) (HPC) 101 % of control | dose: 25.0 mg/kg/injection, schedule: Q04DX003 (ip), vehicle: Klucel (hydroxypropylcellulose) (HPC) 100 % of control
